Assay results reported in ChEMBL document CHEMBL1201862, “PubChem BioAssay data set” (2004).
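Cells were grown in 96-well plates and exposed to each compound for 48 hours at five concentrations; endpoints were interpolated linearly between bracketing concentrations, or set to the highest concentration if not reached. GI50 = concentration required for 50% inhibition of growth.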 Active and inactive are the calls of the source. No stated cut-off is given here; in the data, active = GI50 up to about 1.1 µM and inactive = higher.

What was measured:
Test in all cases: NCI tumour cell line growth inhibition, 48 h
SR = system: SR
K562 = system: K562
SK-MEL-28 = system: SK-MEL-28
RXF 393 = system: RXF 393
NCI-H226 = system: NCI-H226
SF-539 = system: SF-539
M14 = system: M14
CCRF-CEM = system: CCRF-CEM
TK-10 = system: TK-10
CAKI-1 = system: CAKI-1
UO-31 = system: UO-31
UACC-257 = system: UACC-257
IGROV-1 = system: IGROV-1
SF-295 = system: SF-295
NCI-H460 = system: NCI-H460
RPMI-8226 = system: RPMI-8226
SW-620 = system: SW-620
HCT-116 = system: HCT-116
MCF7 = system: MCF7

SMILES	GI50 (SR)	GI50 (K562)	GI50 (SK-MEL-28)	GI50 (RXF 393)	GI50 (NCI-H226)	GI50 (SF-539)	GI50 (M14)	GI50 (CCRF-CEM)	GI50 (TK-10)	GI50 (CAKI-1)	GI50 (UO-31)	GI50 (UACC-257)	GI50 (IGROV-1)	GI50 (SF-295)	GI50 (NCI-H460)	GI50 (RPMI-8226)	GI50 (SW-620)	GI50 (HCT-116)	GI50 (MCF7)
CC1=CC2=C(C)C3(CC3)[C@@](C)(O)C(=O)C2=C1	> 1 µM (active)	> 1 µM (active)	0.194 µM (active)	0.149 µM (active)	0.231 µM (active)	0.219 µM (active)	0.171 µM (active)	> 1 µM (active)	0.329 µM (active)	0.269 µM (active)	0.19 µM (active)	0.237 µM (active)	0.29 µM (active)	0.223 µM (active)	0.0783 µM (active)	> 1 µM (active)	> 1 µM (active)	0.171 µM (active)	
COC1=C(N)C(=O)c2nc(C)ccc2C1=O	2.94 µM (inactive)		1.82 µM (inactive)	1.67 µM (inactive)	1.04 µM (active)	1.91 µM (inactive)	1.88 µM (inactive)	17.2 µM (inactive)	8.2 µM (inactive)	8.3 µM (inactive)	2.17 µM (inactive)	1.47 µM (inactive)	9.98 µM (inactive)	1.79 µM (inactive)	2.08 µM (inactive)	5.21 µM (inactive)	1.87 µM (inactive)	1.94 µM (inactive)	
CN(C)CCNC(=O)c1cccc2ccc(-c3ccc(Br)cc3)nc12		1.7 µM (inactive)	3.76 µM (inactive)	3.96 µM (inactive)	1.89 µM (inactive)	3.13 µM (inactive)		1.09 µM (active)		1.3 µM (inactive)	1.76 µM (inactive)	2.8 µM (inactive)	2.96 µM (inactive)	3.76 µM (inactive)	0.767 µM (active)	1.29 µM (inactive)	1.17 µM (inactive)	1.23 µM (inactive)	2.92 µM (inactive)
N#Cc1c(N)sc2c1-c1ccccc1OC2	19.1 µM (inactive)	34.2 µM (inactive)	44.2 µM (inactive)	16 µM (inactive)	93.5 µM (inactive)	46.6 µM (inactive)	56.5 µM (inactive)	12.4 µM (inactive)	32.1 µM (inactive)		25.2 µM (inactive)	> 100 µM (inactive)	49.7 µM (inactive)		36.4 µM (inactive)	33.6 µM (inactive)	35.5 µM (inactive)	27.3 µM (inactive)	40 µM (inactive)
CCc1cccc(C)c1NC(=O)CC1C(=O)Nc2ccccc2S1(=O)=O (configuration not stated)	5.65 µM (inactive)	2.92 µM (inactive)	18.5 µM (inactive)	15.1 µM (inactive)	33 µM (inactive)	11 µM (inactive)	18.9 µM (inactive)	13.7 µM (inactive)	29.3 µM (inactive)	14.2 µM (inactive)	13.5 µM (inactive)	18.9 µM (inactive)	13.4 µM (inactive)	26.2 µM (inactive)	13.1 µM (inactive)	13.9 µM (inactive)	15.2 µM (inactive)	15.8 µM (inactive)	
Cc1nc2c(s/c(=N\N)n2-c2ccccc2)c(=O)[nH]1	> 100 µM (inactive)	> 100 µM (inactive)	> 100 µM (inactive)	> 100 µM (inactive)	> 100 µM (inactive)	> 100 µM (inactive)	> 100 µM (inactive)	> 100 µM (inactive)	> 100 µM (inactive)	> 100 µM (inactive)	> 100 µM (inactive)	> 100 µM (inactive)	> 100 µM (inactive)	> 100 µM (inactive)	> 100 µM (inactive)	> 100 µM (inactive)	> 100 µM (inactive)	> 100 µM (inactive)	
O=C(NO)C(=O)Nc1ccc(Cl)cc1[N+](=O)[O-]	> 100 µM (inactive)	> 100 µM (inactive)	> 100 µM (inactive)	> 100 µM (inactive)	> 100 µM (inactive)	> 100 µM (inactive)	> 100 µM (inactive)	> 100 µM (inactive)	> 100 µM (inactive)	66.5 µM (inactive)	> 100 µM (inactive)	> 100 µM (inactive)	> 100 µM (inactive)	> 100 µM (inactive)	> 100 µM (inactive)	> 100 µM (inactive)	> 100 µM (inactive)	> 100 µM (inactive)	
CCOC(=O)/C=C/c1nc(C#N)c(N)o1	> 100 µM (inactive)	> 100 µM (inactive)	> 100 µM (inactive)	1.46 µM (inactive)			> 100 µM (inactive)	> 100 µM (inactive)	> 100 µM (inactive)	> 100 µM (inactive)	53.6 µM (inactive)	> 100 µM (inactive)	> 100 µM (inactive)			> 100 µM (inactive)	> 100 µM (inactive)	> 100 µM (inactive)	> 100 µM (inactive)
